Assay results reported in paper PMC10544575, “Inhibitory mechanism of vortioxetine on CYP450 enzymes in human and rat liver microsomes” (Frontiers in Pharmacology, 2023).
Where two headings read alike, the source gives them in different places.

What was measured:
CYP2B = test: IC50-shift experiment, CYP2B in RLMs; format: in vitro ADME; details: rat, rat liver microsomes, probe bupropion; for IC50 at 30 min: bupropion 20 μM
CYP2C-3 = test: Reversible inhibition kinetics (Lineweaver-Burk), CYP2C-3 in RLMs; format: in vitro ADME, rat
Description: (§1) The components of the incubation system were as follows: 0.20 mg/mL HLMs or 0.20 mg/mL RLMs, 0.1 M Tris-HCl, vortioxetine, and the probe substrates of each enzyme. In the study of Km’s (Michaelis–Menten constant) experiment, midazolam (1, 2, 5, 10, 20, 50 and 100 μM in HLMs and RLMs) corresponded to CYP3A4/3A; bupropion (10, 20, 50, 100, 200, 500, 1,000 and 2000 μM in HLMs; 1, 2, 5, 10, 20, 50, 100 and 200 μM in RLMs) corresponded to CYP2B6/2B; amodiaquine (5, 10, 20, 50, 100 and 200 μM in HLMs; 10, 20, 50, 100, 200, 500 μM in RLMs) corresponded to CYP2C8/CYP2C-1; losartan (1, 2, 5, 10, 20, 50, 100, 200 μM in HLMs; 10, 20, 50, 100, 200, 500 and 1,000 μM in RLMs) corresponded to CYP2C9/CYP2C-2; mephenytoin (20, 50, 100, 200, 500 and 1,000 μM in HLMs; 5, 10, 20, 50, 100, 200, 500 and 1,000 μM in RLMs) corresponded to CYP2C19/CYP2C-3; and dextromethorphan (1, 2, 5, 10, 20, 50 and 100 μM in HLMs and RLMs) corresponded to CYP2D6/CYP2D. After 5.0 min of preincubation in the shaking water bath, the reaction was started with the addition of 1.0 mM NADPH. The incubated temperature at 37°C for 30 min. After the incubation, the enzyme reaction was stopped by cooling at −80°C, and 200 μL of acetonitrile and 20 μL of internal standard diazepam (200 ng/mL) were added for protein precipitation. The solution was fully vortexed and centrifuged at 13,000 × rpm for 10 min, and the supernatant was collected for data analysis by UPLC-MS/MS.
The inhibitory mechanism of the inhibitor on the enzyme was generally used by different concentrations of the inhibitor against different concentrations of the probe substrate. The concentrations of the inhibitor and the concentrations of probe substrates in the experiment were estimated based on IC50 and Km values, respectively.
In RLMs, the concentrations of the substrates midazolam and dextromethorphan were 0.8, 1.6, 3.5, 7 μM and 5, 10, 20, 40 μM, respectively, vortioxetine concentrations were 4, 8, 16, 32 μM. The concentrations of mephenytoin and amodiaquine were 100, 200, 400, 800 μM and 5, 10, 20, 40 μM, respectively, vortioxetine concentrations were 5, 10, 20, 40 μM. The losartan concentrations were 4, 8, 15, 30 μM, corresponding to vortioxetine concentrations of 0.08, 0.15, 0.3, 0.6 μM. […]
(§2) All experiments results were detected by UPLC-MS/MS, which equipped with a Waters Acquity UPLC system (Milford, MA, United States) and a Waters Xevo TQ-S triple quadrupole tandem mass spectrometer with an electrospray ionization source (Milford, MA, United States). […]
(§3) IC50 values and enzyme kinetic parameters were calculated by Graphpad Prism 6.0 (GraphPad software Inc., CA, United States). […] Data for each experiment were expressed as mean ± SD (n = 3).

CYP2C-2 = test: IC50 of vortioxetine on CYP2C-2 (losartan) in RLMs; format: in vitro ADME; details: rat, rat liver microsomes, probe losartan
Description: as §1, with “After 5.0 min of preincubation in the shaking water bath, the reaction was started with the addition of 1.0 mM NADPH. The incubated temperature at 37°C for 30 min. After the incubation, the enzyme reaction was stopped by cooling at −80°C, and 200 μL of acetonitrile and 20 μL of internal standard diazepam (200 ng/mL) were added for protein precipitation. The solution was fully vortexed and centrifuged at 13,000 × rpm for 10 min, and the supernatant was collected for data analysis by UPLC-MS/MS.” left out
as §2, §3

IC50 at 30 min (CYP2B; 30 min preincubation with 1.0 mM NADPH): 5.3 µM
IC50 at 30 min (CYP2B; 30 min preincubation without NADPH): 10.1 µM
α (CYP2C-3; mephenytoin): 2.97
Inhibition type (CYP2C-3; mephenytoin, Lineweaver-Burk plot): noncompetitive inhibition
αKi (CYP2C-3; mephenytoin, secondary plot of y-intercepts): 12.54 µM
Ki at 30 min (CYP2C-3; rat, rat liver microsomes, probe mephenytoin): 4.23 µM
IC50 at 30 min (CYP2C-2; RLMs 0.20 mg/mL, losartan at Km, 37°C, 30 min, read-out: IC50): 0.37 µM
IC50 at 30 min (CYP2C-2; inhibitory effect (strength judged by IC50), RLMs): < 1 µM
SMILES: Cc1ccc(Sc2ccccc2N2CCNCC2)c(C)c1 [vortioxetine]
IC50 shift at 30 min (CYP2B; ratio IC50 (−) NADPH to IC50 (+) NADPH, read-out: IC50 fold shift): 1.91
